Measurements reported in ChEMBL document CHEMBL5614419, “Discovery of novel BCL6-Targeting PROTACs with effective antitumor activities against DLBCL in vitro and in vivo” (Eur J Med Chem, 2024).
Active and inactive are the calls of the source. No cut-off for these calls is given here.

Assays:
OCI-Ly1 = test: Antiproliferative activity against BCL6-dependent human OCI-Ly1 cells assessed as inhibition in cell growth measured after 6 days by MTT assay; conditions: OCI-Ly1, 144 h
SUD4 [1] = test: Upregulation of p21 protein level in human SU-DHL-4 cells at 5 uM preincubated for 48 hrs followed by compound elution and measured after 72 hrs by Western blot analysis; type: functional, cell-based
SUD4 [2] = test: Antiproliferative activity against BCL6-dependent human SU-DHL-4 cells assessed as inhibition of cell growth at 1 uM measured after 6 days by MTT assay relative to control; type: functional; conditions: SU-DHL-4, 144 h, time 6 day
[3] = molecular target: T1, Protein cereblon/B-cell lymphoma 6 protein (Homo sapiens, UniProt Q96SW2+P41182); test: PROTAC activity at CRBN/BCL6 in human SU-DHL-4 cells assessed as induction of BCL6 degradation by measuring maximal efficacy incubated for 48 hrs by Western blot analysis relative to control; type: cell-based
[4] = molecular target: T1, Protein cereblon/B-cell lymphoma 6 protein; test: PROTAC activity at CRBN/BCL6 in human SU-DHL-4 cells assessed as induction of BCL6 degradation at 5 uM preincubated with MG-132 for 2 hrs followed by compound addition and measured after 36 hrs by Western blot analysis; type: cell-based
[5] = Antitumor activity against human SU-DHL-4 cells xenografted in female nude nu/nu mouse assessed as tumor growth inhibition at 20 mg/kg, ip measured after 21 days by microcaliper based analysis relative to control; type: functional, SUD4; conditions: SU-DHL-4, 504 h, time 21 day, read-out: TGI
SUD4 [6] = test: Effect on BCL6 mRNA level in human SU-DHL-4 cells at 10 uM incubated for 48 hrs by RT-qPCR analysis; type: functional, cell-based
SUD4 [7] = test: Upregulation of CDKN1A mRNA level in human SU-DHL-4 cells at 10 uM incubated for 48 hrs by RT-qPCR analysis; type: functional, cell-based
[8] = Tmax in male Sprague-Dawley rat at 20 mg/kg, po measured upto 24 hrs by LC-MS/MS analysis; type: ADME, organism-based; conditions: in vivo
SUD4 [9] = test: Upregulation of p27 protein level in human SU-DHL-4 cells incubated for 48 hrs by Western blot analysis; type: functional, cell-based; conditions: dose 0.1-10 µM
[10] = tested on: Ibrutinib resistant DOHH2 cell; test: Upregulation of p27 protein level in human Ibrutinib resistant DOHH2 cells at 0.1 to 10 uM incubated for 48 hrs by Western blot analysis; type: functional, cell-based; conditions: dose 0.1-10 µM
[11] = Toxicity in female nude nu/nu mouse model xenografted with human SU-DHL-4 cells assessed as body weight loss at 10 to 40 mg/kg, ip measured after 21 days; type: organism-based, SUD4; conditions: in vivo, 504 h, dose 10-40 mg/kg, time 21 day
[12] = AUC (0 to infinity) in male Sprague-Dawley rat at 20 mg/kg, po measured upto 24 hrs by LC-MS/MS analysis; type: ADME, organism-based; conditions: in vivo
SU-DHL-6 = test: Antiproliferative activity against BCL6-dependent human SU-DHL-6 cells assessed as inhibition in cell growth measured after 6 days by MTT assay; conditions: SU-DHL-6, 144 h
[13] = molecular target: T1, Protein cereblon/B-cell lymphoma 6 protein; test: PROTAC activity at CRBN/BCL6 in BCL6-dependent human SU-DHL-4 cells assessed as induction of BCL6 degradation by measuring degradation rate at 10 uM incubated for 48 hrs by Western blot analysis relative to control; type: cell-based
[14] = Antitumor activity against human SU-DHL-4 cells xenografted in female nude nu/nu mouse assessed as tumor growth inhibition at 10 mg/kg, ip measured after 21 days by microcaliper based analysis relative to control; type: functional, SUD4; conditions: SU-DHL-4, 504 h, time 21 day, read-out: TGI
[15] = (§1) Cytotoxicity against HEK293T cells assessed as inhibition in cell growth measured after 6 days by MTT assay; type: toxicity, cell-based, HEK-293T; conditions: human, HEK293T cells
HEK-293T = test: as §1; type: toxicity, cell-based; conditions: human, hek-293t, 144 h; time 6 day
[16] = Tmax in male Sprague-Dawley rat at 10 mg/kg, ip measured upto 24 hrs by LC-MS/MS analysis; type: ADME, organism-based; conditions: in vivo
SUD4 [17] = test: Antiproliferative activity against BCL6-dependent human SU-DHL-4 cells assessed as inhibition in cell growth measured after 6 days by MTT assay; conditions: SU-DHL-4, 144 h
SUD4 [18] = test: Induction of cell cycle arrest in human SU-DHL-4 cells assessed as accumulation of cells at G1 phase incubated for 72 hrs by flow cytometry analysis; type: functional, cell-based; conditions: dose 0.1-10 µM
[19] = molecular target: T1, Protein cereblon/B-cell lymphoma 6 protein; test: In vivo PROTAC activity at CRBN/BCL6 in female nude nu/nu mouse model xenografted with human SU-DHL-4 cells assessed as downregulation of BCL6 protein level in tumor at 40 mg/kg, ip measured after 5 hrs of last dose by Western blot analysis; type: functional, organism-based; conditions: SUD4
[20] = MRT (0 to t) in male Sprague-Dawley rat at 20 mg/kg, po measured upto 24 hrs by LC-MS/MS analysis; type: ADME, organism-based; conditions: in vivo
[21] = molecular target: T1, Protein cereblon/B-cell lymphoma 6 protein; test: PROTAC activity at CRBN/BCL6 in human SU-DHL-4 cells assessed as induction of BCL6 degradation by measuring reduction in protein level at 5 uM measured upto 72 hrs by Western blot analysis; type: cell-based
[22] = AUC (0 to t) in male Sprague-Dawley rat at 10 mg/kg, ip measured upto 24 hrs by LC-MS/MS analysis; type: ADME, organism-based; conditions: in vivo
[23] = molecular target: T1, Protein cereblon/B-cell lymphoma 6 protein; test: PROTAC activity at CRBN/BCL6 in human DOHH-2 cells assessed as induction of BCL6 degradation incubated for 48 hrs by Western blot analysis; type: cell-based
DOHH-2 = test: Antiproliferative activity against BCL6-dependent human DOHH-2 cells assessed as inhibition in cell growth measured after 6 days by MTS assay; conditions: DOHH-2, 144 h
[24] = molecular target: T1, Protein cereblon/B-cell lymphoma 6 protein; test: In vivo PROTAC activity at CRBN/BCL6 in female nude nu/nu mouse model xenografted with human SU-DHL-4 cells assessed as increase in p21 protein level in tumor at 40 mg/kg, ip measured after 5 hrs of last dose by Western blot analysis; type: functional, organism-based; conditions: SUD4
[25] = (§2) Cytotoxicity against human WI-38 VA13 cells assessed as inhibition in cell growth measured after 6 days by MTT assay; type: toxicity, cell-based; conditions: WI-38 VA13 cells
WI-38 VA13 = test: as §2; type: toxicity, cell-based; conditions: wi-38 va13, 144 h, time 6 day
[26] = MRT (0 to t) in male Sprague-Dawley rat at 10 mg/kg, ip measured upto 24 hrs by LC-MS/MS analysis; type: ADME, organism-based; conditions: in vivo
[27] = Half life in male Sprague-Dawley rat at 20 mg/kg, po measured upto 24 hrs by LC-MS/MS analysis; type: ADME, organism-based; conditions: in vivo
SUD4 [28] = test: Upregulation of p27 protein level in human SU-DHL-4 cells at 5 uM preincubated for 48 hrs followed by compound elution and measured after 72 hrs by Western blot analysis; type: functional, cell-based
SUD4 [29] = test: Upregulation of p21 protein level in human SU-DHL-4 cells incubated for 48 hrs by Western blot analysis; type: functional, cell-based; conditions: dose 0.1-10 µM
SUD4 [30] = test: Induction of cell cycle arrest in human SU-DHL-4 cells assessed as G1 phase arrest at 500 nM in presence of Ibrutinib incubated for 72 hrs by flow cytometry; type: functional, cell-based
[31] = Cmax in male Sprague-Dawley rat at 20 mg/kg, po measured upto 24 hrs by LC-MS/MS analysis; type: ADME, organism-based; conditions: in vivo
SUD4 [32] = test: Synergistic antiproliferative activity against human SU-DHL-4 cells assessed as combination index measured after 6 days in presence of Ibrutinib by MTT assay; type: functional; conditions: time 6 day

T1 sequence (Q96SW2 whole entry, looked up, other chains not shown): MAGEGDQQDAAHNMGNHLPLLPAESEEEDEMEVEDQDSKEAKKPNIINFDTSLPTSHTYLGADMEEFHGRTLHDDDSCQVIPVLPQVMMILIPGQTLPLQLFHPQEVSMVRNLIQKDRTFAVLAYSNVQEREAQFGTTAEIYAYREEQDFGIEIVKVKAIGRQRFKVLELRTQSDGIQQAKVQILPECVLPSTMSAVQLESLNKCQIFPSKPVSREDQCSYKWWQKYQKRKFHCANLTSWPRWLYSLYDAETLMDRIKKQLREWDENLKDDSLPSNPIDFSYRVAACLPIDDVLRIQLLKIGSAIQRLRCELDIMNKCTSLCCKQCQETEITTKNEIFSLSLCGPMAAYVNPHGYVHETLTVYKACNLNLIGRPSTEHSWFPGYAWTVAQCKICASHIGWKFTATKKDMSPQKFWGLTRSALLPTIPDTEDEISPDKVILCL

**Q.** Which IC50 (OCI-Ly1) does the source give for COc1cc(Nc2nc(N3CCN(CCOCCNc4cccc5c4C(=O)N(C4CCC(=O)NC4=O)C5=O)CC3)ncc2F)ccc1NC(=O)c1ccc(C2=CCCC2)s1 (stereo not drawn) here?
**A.** 1.37 µM

**Q.** And the Activity (SUD4 [1])?
**A.** Active

**Q.** What about the inhibition at 1 µM (SUD4 [2]) of the same compound?
**A.** 66.1%

**Q.** What about the Emax [3] of the same compound?
**A.** 93%

**Q.** And the Activity [4]?
**A.** inactive

**Q.** And the inhibition in vivo at 20 mg/kg [5]?
**A.** 47.4%

**Q.** And the Activity (SUD4 [6])?
**A.** inactive

**Q.** And the Activity (SUD4 [7])?
**A.** Active

**Q.** And the Tmax [8]?
**A.** 1 h

**Q.** What about the Activity (SUD4 [9]) of the same compound?
**A.** Dose-Dependent Effect

**Q.** What about the Activity [10] of the same compound?
**A.** Active

**Q.** What about the Activity [11] of the same compound?
**A.** Non-Toxic

**Q.** What about the AUC(0-inf) [12] of the same compound?
**A.** 2330 ng·h/mL

**Q.** What about the IC50 (SU-DHL-6) of the same compound?
**A.** 0.451 µM

**Q.** And the Activity [13]?
**A.** 94.4%

**Q.** And the inhibition in vivo at 10 mg/kg [14]?
**A.** 22.2%

**Q.** What about the IC50 at 6 days [15] of the same compound?
**A.** > 10 µM

**Q.** And the Activity (HEK-293T)?
**A.** Dose-Dependent Effect

**Q.** And the Tmax [16]?
**A.** 2.67 h

**Q.** And the IC50 (SUD4 [17])?
**A.** 0.399 µM

**Q.** And the Activity (SUD4 [18])?
**A.** Dose-Dependent Effect

**Q.** What about the Activity [19] of the same compound?
**A.** Active

**Q.** And the MRT last at 24 h [20]?
**A.** 2.48 h

**Q.** And the Activity [21]?
**A.** Active

**Q.** What about the AUC(0-t) at 24 h [22] of the same compound?
**A.** 33800 ng·h/mL

**Q.** And the Activity [23]?
**A.** Dose-Dependent Effect

**Q.** What about the DC50 [23] of the same compound?
**A.** 0.558 µM

**Q.** And the IC50 (DOHH-2)?
**A.** 0.0562 µM

**Q.** And the Activity [24]?
**A.** Active

**Q.** What about the IC50 at 6 days [25] of the same compound?
**A.** > 10 µM

**Q.** What about the Activity (WI-38 VA13) of the same compound?
**A.** Dose-Dependent Effect

**Q.** And the MRT last at 24 h [26]?
**A.** 5.3 h

**Q.** What about the half-life [27] of the same compound?
**A.** 1.06 h

**Q.** And the Activity (SUD4 [28])?
**A.** Active

**Q.** What about the Activity (SUD4 [29]) of the same compound?
**A.** Dose-Dependent Effect

**Q.** What about the Activity (SUD4 [30]) of the same compound?
**A.** Active

**Q.** And the Cmax [31]?
**A.** 703 ng/mL

**Q.** What about the CI (SUD4 [32]) of the same compound?
**A.** 0.5
